Laboratory results published in patent publication US9937214B2, “Lactobacillus crispatus and application thereof” (priority 2013, dated 2018).
Positions of bridges follow the written chain, without caps; N, C: chain ends. Non-standard residues stand in square brackets, D forms with d. Residues, ends and D or L forms follow the SMILES beside them. *: point of attachment. Ileψ(thiazoline)Cys = CC[C@H](C)[C@H](N)C1=N[C@H](C(=O)*)CS1; dOrn = NCCC[C@@H](N)C(=O)O

Test system: Lactobacillus crispatus 262-1
Assay: Antibiotic sensitivity test, agar-diffusion paper-disc method; on Inhibition zone diameter: test concentration or dose not given here
Assay type: cell-based
Conditions: for Inhibition zone diameter: paper content/sheet per antibiotic as in Table 3; for Sensitivity determination: T0 generation, three levels: sensitivity, mediation, drug resistance, criteria of reference bacteria; for Sensitivity determination (passage stability test): embodiment 6

## CC1(C)S[C@@H]2[C@H](NC(=O)[C@H](N)c3ccc(O)cc3)C(=O)N2[C@H]1C(=O)O [Amoxicillin]
T0 generation of the strain
  Inhibition zone diameter: 20 mm
  Sensitivity determination: Sensitivity
  Sensitivity determination (passage stability test): mediation
Listed as amoxicillin
  Sensitivity determination: sensitivity
T30 generation of the strain
  Inhibition zone diameter: 24 mm
T50 generation of the strain
  Inhibition zone diameter: 23 mm

## CC1(C)S[C@@H]2[C@H](NC(=O)[C@H](N)c3ccccc3)C(=O)N2[C@H]1C(=O)O [Ampicillin]
T0 generation of the strain
  Inhibition zone diameter: 24 mm
  Sensitivity determination: Sensitivity
  Sensitivity determination (passage stability test): mediation
Listed as ampicillin
  Sensitivity determination: sensitivity
T30 generation of the strain
  Inhibition zone diameter: 24 mm
T50 generation of the strain
  Inhibition zone diameter: 25 mm

## CC[C@H]1OC(=O)[C@H](C)[C@@H](O[C@H]2C[C@@](C)(OC)[C@@H](O)[C@H](C)O2)[C@H](C)[C@@H](O[C@@H]2O[C@H](C)C[C@H](N(C)C)[C@H]2O)[C@](C)(O)C[C@@H](C)CN(C)[C@H](C)[C@@H](O)[C@]1(C)O [Azithromycin]
T0 generation of the strain
  Inhibition zone diameter: 31 mm
  Sensitivity determination: Sensitivity
Listed as azithromycin
  Sensitivity determination: sensitivity
T30 generation of the strain
  Inhibition zone diameter: 31 mm
T50 generation of the strain
  Inhibition zone diameter: 30 mm

## CC[C@H](C)[C@H](N)C1=N[C@H](C(=O)N[C@@H](CC(C)C)C(=O)N[C@H](CCC(=O)O)C(=O)N[C@H](C(=O)N[C@H]2CCCCNC(=O)[C@H](CC(N)=O)NC(=O)[C@@H](CC(=O)O)NC(=O)[C@H](Cc3cnc[nH]3)NC(=O)[C@@H](Cc3ccccc3)NC(=O)[C@H]([C@@H](C)CC)NC(=O)[C@@H](CCCN)NC2=O)[C@@H](C)CC)CS1 [Bacitracin] ({Ileψ(thiazoline)Cys}-L[dE]IK[dOrn]I[dF]H[dD]N; lactam 4-C)
T0 generation of the strain
  Inhibition zone diameter: 0 mm
  Sensitivity determination: drug resistance
  Sensitivity determination (passage stability test): drug resistance
T30 generation of the strain
  Inhibition zone diameter: 0 mm
T50 generation of the strain
  Inhibition zone diameter: 0 mm

## CO/N=C(\C(=O)N[C@@H]1C(=O)N2C(C(=O)O)=C(CSc3nc(=O)c(=O)[nH]n3C)CS[C@H]12)c1csc(N)n1 [Ceftriaxone]
T0 generation of the strain
  Inhibition zone diameter: 29 mm
  Sensitivity determination: Sensitivity
  Sensitivity determination (passage stability test): mediation
Listed as ceftriaxone
  Sensitivity determination: sensitivity
T30 generation of the strain
  Inhibition zone diameter: 31 mm
T50 generation of the strain
  Inhibition zone diameter: 30 mm

## O=C(N[C@H](CO)[C@H](O)c1ccc([N+](=O)[O-])cc1)C(Cl)Cl [Chloramphenicol]
T0 generation of the strain
  Inhibition zone diameter: 35 mm
  Sensitivity determination: Sensitivity
Listed as chloromycetin
  Sensitivity determination: sensitivity
T30 generation of the strain
  Inhibition zone diameter: 36 mm
T50 generation of the strain
  Inhibition zone diameter: 35 mm

## CCC[C@@H]1C[C@@H](C(=O)N[C@@H]([C@H]2O[C@H](SC)[C@H](O)[C@@H](O)[C@H]2O)[C@H](C)Cl)N(C)C1 [Clindamycin]
T0 generation of the strain
  Inhibition zone diameter: 35 mm
T30 generation of the strain
  Inhibition zone diameter: 37 mm
T50 generation of the strain
  Inhibition zone diameter: 36 mm

## CC[C@H]1OC(=O)[C@H](C)[C@@H](O[C@H]2C[C@@](C)(OC)[C@@H](O)[C@H](C)O2)[C@H](C)[C@@H](O[C@@H]2O[C@H](C)C[C@H](N(C)C)[C@H]2O)[C@](C)(O)C[C@@H](C)C(=O)[C@H](C)[C@@H](O)[C@]1(C)O [Erythromycin]
T0 generation of the strain
  Inhibition zone diameter: 36 mm
  Sensitivity determination: Sensitivity
Listed as erythromycin
  Sensitivity determination: sensitivity
T30 generation of the strain
  Inhibition zone diameter: 41 mm
T50 generation of the strain
  Inhibition zone diameter: 39 mm

## C[C@@H](O)[C@H]1C(=O)N2C(C(=O)O)=C(SCCN=CN)C[C@H]12 [Imipenem]
T0 generation of the strain
  Inhibition zone diameter: 40 mm
T30 generation of the strain
  Inhibition zone diameter: 40 mm
T50 generation of the strain
  Inhibition zone diameter: 40 mm

## NC[C@H]1O[C@H](O[C@H]2[C@H](O)[C@@H](O[C@H]3O[C@H](CO)[C@@H](O)[C@H](N)[C@H]3O)[C@H](N)C[C@@H]2N)[C@H](O)[C@@H](O)[C@@H]1O [Kanamycin]
T0 generation of the strain
  Inhibition zone diameter: 0 mm
T30 generation of the strain
  Inhibition zone diameter: 0 mm
T50 generation of the strain
  Inhibition zone diameter: 0 mm

## Cc1ncc([N+](=O)[O-])n1CCO [Metronidazole]
T0 generation of the strain
  Inhibition zone diameter: 0 mm
  Sensitivity determination: drug resistance
  Sensitivity determination (passage stability test): drug resistance
T30 generation of the strain
  Inhibition zone diameter: 0 mm
T50 generation of the strain
  Inhibition zone diameter: 0 mm

## CCN1CCN(C(=O)N[C@@H](C(=O)N[C@@H]2C(=O)N3[C@@H]2SC(C)(C)[C@@H]3C(=O)O)c2ccccc2)C(=O)C1=O [Piperacillin]
T0 generation of the strain
  Inhibition zone diameter: 35 mm
  Sensitivity determination: Sensitivity
Listed as piperacillin
  Sensitivity determination: sensitivity
T30 generation of the strain
  Inhibition zone diameter: 37 mm
T50 generation of the strain
  Inhibition zone diameter: 35 mm

## CN(C)[C@@H]1C(O)=C(C(N)=O)C(=O)[C@@]2(O)C(O)=C3C(=O)c4c(O)cccc4[C@@](C)(O)[C@H]3C[C@@H]12 [Tetracycline]
T0 generation of the strain
  Inhibition zone diameter: 38 mm
T30 generation of the strain
  Inhibition zone diameter: 40 mm
T50 generation of the strain
  Inhibition zone diameter: 39 mm

## CN[C@H](CC(C)C)C(=O)N[C@H]1C(=O)N[C@@H](CC(N)=O)C(=O)N[C@H]2C(=O)N[C@H]3C(=O)N[C@H](C(=O)N[C@H](C(=O)O)c4cc(O)cc(O)c4-c4cc3ccc4O)[C@H](O)c3ccc(c(Cl)c3)Oc3cc2cc(c3O[C@@H]2O[C@H](CO)[C@@H](O)[C@H](O)[C@H]2O[C@H]2C[C@](C)(N)[C@H](O)[C@H](C)O2)Oc2ccc(cc2Cl)[C@H]1O [Vancomycin]
T0 generation of the strain
  Inhibition zone diameter: 26 mm
  Sensitivity determination: Sensitivity
  Sensitivity determination (passage stability test): mediation
Listed as vancomycin
  Sensitivity determination: sensitivity
T30 generation of the strain
  Inhibition zone diameter: 27 mm
T50 generation of the strain
  Inhibition zone diameter: 26 mm

## Cc1onc(-c2ccccc2)c1C(=O)N[C@@H]1C(=O)N2[C@@H]1SC(C)(C)[C@@H]2C(=O)O [oxacillin]
T0 generation of the strain
  Inhibition zone diameter: 9 mm
  Sensitivity determination: Mediation
  Sensitivity determination (passage stability test): mediation
T30 generation of the strain
  Inhibition zone diameter: 10 mm
T50 generation of the strain
  Inhibition zone diameter: 9 mm

## Gentamicin
T0 generation of the strain
  Inhibition zone diameter: 0 mm
  Sensitivity determination: drug resistance
  Sensitivity determination (passage stability test): drug resistance
T30 generation of the strain
  Inhibition zone diameter: 0 mm
T50 generation of the strain
  Inhibition zone diameter: 0 mm

## Penicillin
T0 generation of the strain
  Inhibition zone diameter: 24 mm
  Sensitivity determination: Mediation
  Sensitivity determination (passage stability test): mediation
Listed as penicillin
  Sensitivity determination: mediation
T30 generation of the strain
  Inhibition zone diameter: 25 mm
T50 generation of the strain
  Inhibition zone diameter: 24 mm
